Laboratory results from patent US20100331722A1, “Device and method for assessing operant facial pain” (priority 2004, published 2010).
Entries after “also recorded” stand apart in the source; their conditions may differ.

Test system: orofacial inflammatory pain
Test: thermal operant orofacial pain test after carrageenan-induced orofacial inflammation
Type: in vivo, Male Sprague Dawley rats
Protocol: General. Male Sprague Dawley rats (200-300 g, N=18) were lightly anesthetized using isoflurane (1-2.5%, inhalation) and their hair was bilaterally removed (FIG. 1) from the orofacial region using clippers, followed by depilatory cream 1 day prior to behavioral testing. Excess cream was removed with a moistened paper towel to minimize skin irritation. Rats were food fasted for 12-15 hours prior to each testing session and following each session were provided with standard food chow. Animals were tested at the same time of the day and a recovery day from the fasting was included between the testing sessions to minimize nutritional differences from their normal food routine. Water was made available ad libitum before and after testing sessions and animal weight was recorded daily. The animals were then brought into the behavioral procedure room 1 hour prior to testing and allowed to acclimate to the temperature and ambient noise of the room. Animal testing procedures and general handling complied with the ethical guidelines and standards established by the Institutional Animal Care and Use Committee at the University of Florida and all procedures complied with the Guide for Care and Use of Laboratory Animals (Council, 1996).
Thermal Testing. A testing cage (20.3 cm W×20.3 cm D×16.2 cm H) with acrylic walls was constructed with an opening in one wall (4×6 cm) which was lined with grounded metal (aluminum) tubing. The tubing served as a thermode when connected to a water pump (Model RTE110B, NES Laboratories, Inc.) via flexible polyethylene tubing through which heated water (range: 37.7-57.2° C.) was circulated (FIGS. 2A and 2B). A standard rodent watering bottle containing a diluted (1:2 with water) sweetened condensed milk solution (Nestle Carnation Company, room temperature) was mounted outside the cage. The circulating water pump was activated and the appropriate temperature was set prior to testing the animals. The room temperature was maintained at 22±1° C. for all behavioral tests.
Unrestrained animals were placed separately in a testing cage, and the data acquisition system was activated (WinDaq Lite Data Acq DI-194, DATAQ Instruments, Inc). The bottle was then positioned in proximity to the cage such that the animal was allowed access to the reward bottle when simultaneously contacting the thermode with its face. The metal spout on the watering bottle was connected to a 13-volt DC power supply and, in series, to a multi-channel data acquisition module (WinDaq Lite Data Acq DI-194, DATAQ Instruments, Inc.). When the rat drank from the water bottle, the skin on its shaved face contacted the grounded thermode, and the animal's tongue contacted the metal spout on the water bottle, completing an electrical circuit (FIG. 2A). The bottle position was adjusted horizontally and vertically to facilitate contact of the thermode within the same shaved area of the face for each animal (FIG. 2B). The closed circuit was registered in the computer and data were collected at 60 Hz for the entire length of the experiment. Each spout contact was recorded as a ‘licking’ event. A separate circuit was established from the metal thermode to the animal by grounding the floor with an aluminum sheet for recording of ‘facial contact’ events (FIG. 3). The latter circuit was necessary to determine if the animal made an attempt at the reward bottle but was discouraged by the temperature of the thermode. The duration of each facial contact and the total number of events (licking, facial contact) were recorded. The investigator monitored online data acquisition to ensure that each recorded licking event from the first circuit corresponded to a recorded facial contact on the tubing (the second circuit). […]

[1] = one animal, retested 30 minutes after morphine 0.5 mg/kg s.c., post-inflammation

Row | Compound | effect on inflammatory hyperalgesia (operant outcome measures) (morphine 0.5 mg/kg s.c. 30 minutes prior to testing, 2.5 hours post-carrageenan, 45.5° C., N=6) | operant outcome measures of morphine-treated inflamed animals versus normal animals (morphine-treated animals tested at 45.5° C., all measures except facial contact events) | intake (post-morphine) (one animal, retested 30 minutes after morphine 0.5 mg/kg s.c., given after the 3 hours post-inflammation trial, 30-minute operant trial) [g] | facial contact duration (post-morphine) [1] [s] | facial contacts (post-morphine) [1] | licking events (post-morphine) [1] | ratio facial duration/facial contact (post-morphine) [1] | ratio licking/contact events (post-morphine) [1] | operant responses after morphine, pain indices (FIG. 7) (single animal, repeated testing following carrageenan, before and after morphine) | effect of carrageenan inflammation on operant outcome measures (carrageenan 6 mg s.c. mid-cheek bilaterally, tested 3 hours post-inflammation at 45.5° C., all measures except facial contact events (FIG. 6))
1 | CN1CC[C@]23c4c5ccc(O)c4O[C@H]2[C@@H](O)C=C[C@H]3[C@H]1C5 [morphine] | all but one of these effects was completely reversed; also recorded: completely blocked | comparable to normal animals tested at 37.7 °C | 17.8 | 634 | 309 | 3582 | 2.05 | 11.6 | analgesic response | –
2 | carrageenan | – | – | – | – | – | – | – | – | – | significant reduction
